Experiments:
[1] = system: Erysiphe graminis f. sp. tritici; test: Test A: wheat powdery mildew, preventive spray on wheat seedlings; assay type: in vivo; conditions: wheat seedlings sprayed to run-off, inoculated following day, rated after 8 days at 20° C.; 100 = 100% disease control, 0 = no control; test concentration not given
[2] = system: Puccinia recondite f. sp. tritici; test: Test B: wheat leaf rust, preventive spray on wheat seedlings; assay type: in vivo; conditions: wheat seedlings sprayed to run-off, inoculated following day, 24 h saturated atmosphere then 7 days at 20° C.; 100 = 100% disease control, 0 = no control; test concentration not given
Septoria tritici = test: Test C: wheat leaf blotch, preventive spray on wheat seedlings; assay type: in vivo; conditions: wheat seedlings sprayed to run-off, inoculated following day, 48 h saturated atmosphere then 19 days at 20° C.; 100 = 100% disease control, 0 = no control; test concentration not given
Septoria nodorum = test: Test D: wheat glume blotch, preventive spray on wheat seedlings; assay type: in vivo; conditions: wheat seedlings sprayed to run-off, inoculated following day, 48 h saturated atmosphere then 7 days at 20° C.; 100 = 100% disease control, 0 = no control; test concentration not given
Alternaria solani = conditions: tomato seedlings sprayed to run-off, inoculated following day, 48 h saturated atmosphere at 27° C. then 5 days at 20° C.; 100 = 100% disease control, 0 = no control; test concentration not given
Botrytis cinerea = conditions: tomato seedlings sprayed to run-off, inoculated following day, 48 h saturated atmosphere at 20° C. then 3 days at 24° C.; 100 = 100% disease control, 0 = no control; test concentration not given

COc1cc(OC)c(Cl)c(-n2c(-c3ccc(F)cc3)cc(=O)c(C)c2-c2c(F)cc(F)cc2F)c1 [Compound 1, 1-(2-chloro-3-5-dimethoxyphenyl)-6-(4-fluorophenyl)-3-methyl-2-(2,4,6-trifluorophenyl)-4-(1H)-pyridinone]
Test A disease control rating [1]: 99% | Test B disease control rating [2]: 100% | Test C disease control rating (Septoria tritici): 97% | Test D disease control rating (Septoria nodorum): 100% | Test E disease control rating (Alternaria solani): 100% | Test F disease control rating (Botrytis cinerea): 98%
